From US6287813A, “Antibiotic-based gene regulation system” (Cistronics Cell Technology GmbH, priority 1999, dated 2001)

Experiments:
[1] = biological target: T1, PIT2 (Pip-p65)/PPIR (Streptomyces coelicolor, UniProt Q9ADN3); test: SEAP reporter assay, CHO-K1 cotransfected with pMF206 (PIT2; Pip-p65) and pMF172 (PPIR-SEAP); format: cell-based; details: +PI (2 μg/ml), 48 hr post transfection
T1 construct: pMF206 with pMF172 (PPIR-SEAP) in CHO-K1
T1 sequence (Q9ADN3 1-252): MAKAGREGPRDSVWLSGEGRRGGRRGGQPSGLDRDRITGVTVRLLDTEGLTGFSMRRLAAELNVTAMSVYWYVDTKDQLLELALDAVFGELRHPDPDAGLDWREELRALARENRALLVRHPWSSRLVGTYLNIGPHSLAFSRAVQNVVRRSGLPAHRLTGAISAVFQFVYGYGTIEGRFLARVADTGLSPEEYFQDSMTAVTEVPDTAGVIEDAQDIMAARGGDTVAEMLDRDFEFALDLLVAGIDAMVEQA
Excerpt: PIT2, the fusion protein of Pip and the p65 transactivation domain of the human NF-κB transcription activator was cloned in a three step procedure: (i) The p65 domain of the human NF-κB transcription activator was amplified from pSG424-p65 (kindly provided by H. Hauser, GBF, Braunschweig, Germany) with oligos OMF97:
Chinese hamster ovary cells (CHO-K1, ATCC: CCL 61), Baby hamster kidney cells (BHK-21, ATCC: CRL-8544), and HeLa cells (ATCC: CRL-7923) as well as stable cell lines CHO-PIT1, CHO-PIT2, CHO-TWIN195, CHO-TWIN1108 and CHO-PIT1-SEAP were cultured as described before (Fussenegger et al., 1998, Nat. Biotechnol. 16,468-472) in the presence of appropriate antibiotics: G418 400 μg/ml; zeocin 100 μg/ml. Optimized CaPO4 protocols were used for high efficiency transient transfection of all cell lines (id). Transient transfected cells were routinely analyzed after 48 h for GFP or SEAP expression using fluorescence microscopy and p-nitrophenolphosphate-based light absorbance timecourse, respectively, as described before (Fussenegger et al., 1998, Nat. Biotechnol. 16, 468-472; Berger et al., 1988, Gene 66, 1-10 b). […]
In addition, pMF206 (PIT2; Pip-p65) was cotransfected with pMF172 (PPIR -SEAP) and the SEAP readout in the absence and presence of PI (2 μg/ml) was directly compared to CHO-K1 cells cotransfected with pMF156 (PIT; Pip-VP16) and pMF172 (PPIR -SEAP). […]

[2] = biological target: T2, PIT/PPIR system (Streptomyces coelicolor, UniProt Q9ADN3); test: SEAP reporter assay, CHO-TWIN clones transfected with pMF172 (PPIR-SEAP); format: cell-based; details: for SEAP Production (%): 48 h, no inducer = 100
T2 construct: pMF156/pTWIN in CHO cells, PPIR-SEAP or GFP reporter
T2 sequence (Q9ADN3 1-252): T1 sequence (Q9ADN3 1-252)
Excerpt: pTWIN contains both PIT and tTA in a PSV40 -driven dicistronic configuration. For construction of pTWIN, PIT was first transferred from pMF156 as an EcoRI/HindIII fragment to the corresponding sites of pSBC-1 (EcoRI/HindIII; resulting in pMF167) before the PIT expression unit could be fused to the tTA expression unit contained on pSBC2-tTA (Fussenegger et al., 1997, supra) via SspI/NotI sites. Thus, pTWIN contains the dicistronic PSV40 -PIT-IRES-tTA-pA expression cassette.
Chinese hamster ovary cells (CHO-K1, ATCC: CCL 61), Baby hamster kidney cells (BHK-21, ATCC: CRL-8544), and HeLa cells (ATCC: CRL-7923) as well as stable cell lines CHO-PIT1, CHO-PIT2, CHO-TWIN195, CHO-TWIN1108 and CHO-PIT1-SEAP were cultured as described before (Fussenegger et al., 1998, Nat. Biotechnol. 16,468-472) in the presence of appropriate antibiotics: G418 400 μg/ml; zeocin 100 μg/ml. Optimized CaPO4 protocols were used for high efficiency transient transfection of all cell lines (id). Transient transfected cells were routinely analyzed after 48 h for GFP or SEAP expression using fluorescence microscopy and p-nitrophenolphosphate-based light absorbance timecourse, respectively, as described before (Fussenegger et al., 1998, Nat. Biotechnol. 16, 468-472; Berger et al., 1988, Gene 66, 1-10 b). For construction of stable CHO-PIT and CHO-TWIN cell lines, CHO-K1 was cotransfected either with pMF156 or pTWIN1 and pSV2neo carrying the G418 resistance gene. CHO-PIT1-SEAP was constructed by cotransfection of pMF172 and pZeoSV2 (Invitrogen). For assessment of dose-response characteristics of PPIR -regulated gene expression, CHO-PIT1-SEAP were cultured at cell densities of 150,000/ml for 48 at various PI concentrations. The mixed populations were cloned using FACS-mediated single-cell-sorting (FACStar^Plus; Beckton Dickinson). Gel retardation assay were performed as described (Salah-Bey et al., 1995, supra) using Pip purified from an overproducing strain of E. coli. Pip (0.02 pmol) was titrated with a range of antibiotic concentrations in a reaction volume of 20 μl. Protein solutions were pre-incubated at room temperature for 15 min. in the absence or presence of PI or its derivative quinupristin in a buffer containing 10 mM Tris (pH 7.8), 10 mM MgCl2, 300 mM NaCl, 2 mM DTT and 10% glycerol. An EcoRI-HindII PPTR fragment (0.02 pmol) containing three Pip binding sites (radiolabelled using α-^32 P)dATP was added and incubated for 15 min. To minimize nonspecific protein binding and increase protein stability, 2 μg of poly dIdC and 20 μg BSA were included in the incubation mix. Protein-DNA complexes were separated on 5% polyacrylamide,TBE gels and visualized by autoradiography.
CHO-TWIN195 and CHO-TWIN1108 were transfected under identical conditions with the isogenic plasmids containing the SEAP gene under control of the tTA-activated promoter PhCMV*-1 (pMF111) or the PIT-activated promoter PPIR (pMF172). Transfected cells were grown for 48 h in the presence or absence of either antibiotic prior to assay of SEAP activity.
Table 6: Comparison of the regulation performance of streptogramin- (PI and virginiamycin; VIR) and tetracycline-based gene regulation systems. The two cell clones CHO-TWIN195 and CHO-TWIN1108 containing both pristinamycin- and tetracycline-dependent transactivators were transfected with either the streptogramin-responsive or the TET-responsive SEAP reporter plasmids pMF172 (PPIR -SEAP) and pMF111 (PhCMV*-1 -SEAP), respectively, and the relative SEAP production was assessed. SEAP production values are normalized by SEAP activities under the antibiotic-free, active promoter conditions as follows: pMF172 in CHO-TWIN195:1.7 mU/ml; in CHO-TWIN1108 : 1.8 mU/ml. pMF111 in CHO-TWIN195 : 18.6 mU/ml; in CHO-TWIN1108 : 19.2 mU/ml.
Table 7: Compatibility of the streptogramin- and tetracycline-based gene regulation systems. Crossregulation of pristinamycin (PI) and the tetracyclines doxycycline (DOX) and tetracycline (TET). […]

Substance: pristinamycin I [PI]
- SEAP readout (slope of the p-nitrophenolphosphate-based light absorbance time courses) [1]: 0.31 ± 0.003
- Induction factor (IF; ratio of maximal expression level to antibiotic-repressed expression level) ([2]; CHO-TWIN195 + pMF172): 12
- SEAP Production (%) ([2]; CHO-TWIN195 + pMF172): 8.84 ± 0.01%
- Induction factor (IF; ratio of maximal expression level to antibiotic-repressed expression level) ([2]; CHO-TWIN1108 + pMF172): 45
- SEAP Production (%) ([2]; CHO-TWIN1108 + pMF172): 2.2 ± 0.4%
